Experimental data published in ChEMBL document CHEMBL5634077, “Recent advances in 1,2,3- and 1,2,4-triazole hybrids as antimicrobials and their SAR: A critical review” (2023).
≈ marks a conversion by molar mass, not a printed value. Each block holds one compound with its values, some of them ahead of it.

Key:
Type in all cases: functional
Escherichia coli [1] = test: Antibacterial activity against Escherichia coli ATCC 8739 assessed as reduction in bacterial growth by micro-broth dilution method
Pseudomonas aeruginosa [2] = test: Antibacterial activity against Pseudomonas aeruginosa MCCB 0035 assessed as reduction in bacterial growth by micro-broth dilution method
Staphylococcus aureus [3] = test: Antibacterial activity against Staphylococcus aureus ATCC 29213 assessed as reduction in bacterial growth by micro-broth dilution method
Aspergillus fumigatus = test: […] activity against Aspergillus fumigatus NCIM 2081 assessed as reduction in […] by micro-broth dilution method
Aspergillus niger [4] = test: […] activity against Aspergillus niger NCIM 2191 assessed as reduction in […] by micro-broth dilution method
Candida albicans [5] = test: Antifungal activity against Candida albicans NCIM 2087 assessed as fungal growth inhibition
Candida albicans [6] = test: Antifungal activity against Candida albicans assessed as fungal growth inhibition by CLSI based method
Cryptococcus neoformans = test: Antifungal activity against Cryptococcus neoformans assessed as fungal growth inhibition by CLSI based method
Staphylococcus aureus [7] = test: Antibacterial activity against methicillin resistant Staphylococcus aureus incubated for 20 hrs by broth microdilution method
Candida albicans [8] = test: Antifungal activity against Candida albicans ATCC 90028 assessed as growth inhibition incubated for 24 hrs
Staphylococcus aureus [9] = test: Antimicrobial activity against Staphylococcus aureus assessed as diameter of inhibition zone incubated for 24 hrs by disc-diffusion method
Escherichia coli [10] = test: Antimicrobial activity against Escherichia coli assessed as diameter of inhibition zone incubated for 24 hrs by disc-diffusion method
Klebsiella pneumoniae [11] = test: Antimicrobial activity against Klebsiella pneumoniae assessed as diameter of inhibition zone incubated for 24 hrs by disc-diffusion method
Candida albicans [12] = test: Antimicrobial activity against Candida albicans assessed as diameter of inhibition zone incubated for 24 hrs by disc-diffusion method
Staphylococcus aureus [13] = test: Antibacterial activity against Staphylococcus aureus assessed as inhibition of bacterial growth
Escherichia coli [14] = test: Antibacterial activity against Escherichia coli assessed as inhibition of bacterial growth
Klebsiella pneumoniae [15] = test: Antibacterial activity against Klebsiella pneumoniae assessed as inhibition of bacterial growth
Candida albicans [16] = test: Antifungal activity against Candida albicans assessed as inhibition of fungal growth
Aspergillus flavus = test: Antifungal activity against Aspergillus flavus assessed as inhibition of fungal growth
Rhizopus = test: Antifungal activity against Rhizopus assessed as inhibition of fungal growth
Staphylococcus aureus [17] = test: Antibacterial activity against Staphylococcus aureus assessed as diameter of inhibition zone
Escherichia coli [18] = test: Antibacterial activity against Escherichia coli assessed as reduction in bacterial growth
Aspergillus niger [19] = test: Antifungal activity against Aspergillus niger assessed as fungal growth inhibition
Pseudomonas aeruginosa [20] = test: Antibacterial activity against Pseudomonas aeruginosa MTCC 1034 assessed as reduction in bacterial growth
Bacillus subtilis [21] = test: Antibacterial activity against Bacillus subtilis MTCC 441 assessed as reduction in bacterial growth
Bacillus subtilis [22] = test: Antibacterial activity against Bacillus subtilis assessed as reduction in bacterial growth

MIC (Escherichia coli [1]): 2 µg/mL (≈ 4.13 µM)
MIC (Pseudomonas aeruginosa [2]): 4 µg/mL (≈ 8.26 µM)
MIC (Staphylococcus aureus [3]): 2 µg/mL (≈ 4.13 µM)
MIC (Aspergillus fumigatus): 8 µg/mL (≈ 16.5 µM)
MIC (Aspergillus niger [4]): 2 µg/mL (≈ 4.13 µM)
MIC (Candida albicans [5]): 1 µg/mL (≈ 2.07 µM)
SMILES: O=c1cc(-c2ccccc2)c2cc(Cl)ccc2n1Cc1nnc2n1N=C(c1ccccc1)CS2

MIC (Candida albicans [6]): 0.5 µg/mL (≈ 1.6 µM)
MIC (Cryptococcus neoformans): 0.5 µg/mL (≈ 1.6 µM)
SMILES: O=C(c1ccc(Cl)cc1)C(Cc1ccccc1)n1cncn1 (centres undefined)

SMILES: COc1cc(/C=C/c2ccc(OCc3cn(Cc4ccc(C(=O)O)cc4)nn3)cc2)cc(OC)c1
MIC (Staphylococcus aureus [7]): 312 µg/mL (≈ 663 µM)

SMILES: CCCNC(=O)c1nnn(-c2ccc(CC)cc2)c1C
growth inhibition (GI) (Candida albicans [8]): 14.1%

MIC (Candida albicans [6]): 0.5 µg/mL (≈ 1.35 µM)
MIC (Cryptococcus neoformans): 0.5 µg/mL (≈ 1.35 µM)
SMILES: O=C(c1ccc(F)cc1)C(C(c1ccccc1)c1ccccc1)n1cncn1 (centres undefined)

SMILES: S=c1[nH]nc(-c2ccc(Cl)cc2Cl)n1/N=C/c1ccco1
diameter of the inhibition zone (DIZ) (Staphylococcus aureus [9]): 3 mm
diameter of the inhibition zone (DIZ) (Escherichia coli [10]): 3 mm
diameter of the inhibition zone (DIZ) (Klebsiella pneumoniae [11]): 3 mm
diameter of the inhibition zone (DIZ) (Candida albicans [12]): 3 mm

MIC (Staphylococcus aureus [13]): 16 µg/mL (≈ 34.1 µM)
MIC (Escherichia coli [14]): 8 µg/mL (≈ 17 µM)
MIC (Klebsiella pneumoniae [15]): 8 µg/mL (≈ 17 µM)
MIC (Candida albicans [16]): 16 µg/mL (≈ 34.1 µM)
MIC (Aspergillus flavus): 32 µg/mL (≈ 68.1 µM)
MIC (Rhizopus): 32 µg/mL (≈ 68.1 µM)
SMILES: COc1cc(N2CCC(c3n[nH]c(=S)n3-c3cc(Cl)cc(Cl)c3)CC2)ccc1Cl

SMILES: CCCCNC(=O)c1nnn(-c2ccc(C)cc2)c1CCC
growth inhibition (GI) (Candida albicans [8]): 21.2%

MIC (Candida albicans [6]): 0.5 µg/mL (≈ 1.4 µM)
MIC (Cryptococcus neoformans): 0.5 µg/mL (≈ 1.4 µM)
SMILES: O=C(c1ccc(Br)cc1)C(Cc1ccccc1)n1cncn1 (centres undefined)

MIC (Staphylococcus aureus [13]): 4 µg/mL (≈ 8.53 µM)
MIC (Escherichia coli [14]): 4 µg/mL (≈ 8.53 µM)
MIC (Klebsiella pneumoniae [15]): 8 µg/mL (≈ 17.1 µM)
MIC (Candida albicans [16]): 8 µg/mL (≈ 17.1 µM)
MIC (Aspergillus flavus): 4 µg/mL (≈ 8.53 µM)
MIC (Rhizopus): 8 µg/mL (≈ 17.1 µM)
SMILES: COc1cc(N2CCC(c3n[nH]c(=S)n3-c3cccc(C(F)(F)F)c3)CC2)ccc1Cl

MIC (Escherichia coli [1]): 8 µg/mL (≈ 17.1 µM)
MIC (Pseudomonas aeruginosa [2]): 8 µg/mL (≈ 17.1 µM)
MIC (Staphylococcus aureus [3]): 2 µg/mL (≈ 4.28 µM)
MIC (Aspergillus fumigatus): 4 µg/mL (≈ 8.56 µM)
MIC (Aspergillus niger [4]): 4 µg/mL (≈ 8.56 µM)
MIC (Candida albicans [5]): 2 µg/mL (≈ 4.28 µM)
SMILES: O=c1cc(-c2ccccc2)c2cc(F)ccc2n1Cc1nnc2n1N=C(c1ccccc1)CS2

SMILES: Sc1nnc(-c2ccc(Cl)cc2)n1/N=C/c1ccco1
diameter of the inhibition zone (DIZ) (Staphylococcus aureus [9]): 4 mm
diameter of the inhibition zone (DIZ) (Escherichia coli [10]): 4 mm
diameter of the inhibition zone (DIZ) (Klebsiella pneumoniae [11]): 4 mm
diameter of the inhibition zone (DIZ) (Candida albicans [12]): 4 mm

SMILES: CC(c1cn(-c2cnc(-c3ccccc3)c(-c3ccccc3)n2)nn1)N1C(=O)C(=O)c2ccccc21 (centres undefined)
diameter of the inhibition zone (DIZ) (Staphylococcus aureus [17]): 6 mm

MIC (Staphylococcus aureus [13]): 8 µg/mL (≈ 18.4 µM)
MIC (Escherichia coli [14]): 4 µg/mL (≈ 9.19 µM)
MIC (Klebsiella pneumoniae [15]): 8 µg/mL (≈ 18.4 µM)
MIC (Candida albicans [16]): 4 µg/mL (≈ 9.19 µM)
MIC (Aspergillus flavus): 8 µg/mL (≈ 18.4 µM)
MIC (Rhizopus): 8 µg/mL (≈ 18.4 µM)
SMILES: COc1cc(N2CCC(c3n[nH]c(=S)n3-c3ccc(Cl)cc3)CC2)ccc1Cl

SMILES: COc1cc([N+](=O)[O-])c(OC)cc1-n1cc(C(C)N2C(=O)C(=O)c3ccccc32)nn1 (centres undefined)
diameter of the inhibition zone (DIZ) (Staphylococcus aureus [17]): 9 mm

SMILES: [N-]=[N+]=Nc1ccc(-n2cc(Cn3c(=O)sc4cc(Br)ccc43)nn2)c(Cl)c1
growth inhibition (GI) (Candida albicans [8]): 63.7%

MIC (Escherichia coli [18]): 12 µM (≈ 5.8 µg/mL)
MIC (Aspergillus niger [19]): 12 µM (≈ 5.8 µg/mL)
SMILES: O=C(Cn1cc(COc2ccc(C(=O)/C=C/c3ccccc3)cc2)nn1)Nc1ccc([N+](=O)[O-])cc1

MIC (Candida albicans [6]): 0.5 µg/mL (≈ 1.29 µM)
MIC (Cryptococcus neoformans): 0.5 µg/mL (≈ 1.29 µM)
SMILES: O=C(c1ccc(Cl)cc1)C(C(c1ccccc1)c1ccccc1)n1cncn1 (centres undefined)

MIC (Pseudomonas aeruginosa [20]): 1.25 µg/mL (≈ 3.82 µM)
MIC (Bacillus subtilis [21]): 1.25 µg/mL (≈ 3.82 µM)
SMILES: C=CCCC1CC(=O)N1Cc1cn(-c2ccc([N+](=O)[O-])cc2)nn1 (centres undefined)

MIC (Candida albicans [16]): 8 µg/mL (≈ 8.66 µM)
MIC (Aspergillus flavus): 8 µg/mL (≈ 8.66 µM)
MIC (Rhizopus): 16 µg/mL (≈ 17.3 µM)
SMILES: C[C@@H]1[C@H](O)[C@@H](C)/C=C/C=C/C=C/C=C/C=C/C=C/C=C/[C@H](O[C@@H]2O[C@H](C)[C@@H](O)[C@H](N)[C@@H]2O)C[C@@H]2O[C@](O)(C[C@@H](O)C[C@@H](O)[C@H](O)CC[C@@H](O)C[C@@H](O)CC(=O)O[C@H]1C)C[C@H](O)[C@H]2C(=O)O [AMPHOTERICIN B]

MIC (Escherichia coli [18]): 10.9 µM (≈ 6.43 µg/mL)
MIC (Bacillus subtilis [22]): 10.9 µM (≈ 6.43 µg/mL)
SMILES: CC(c1ccc(Br)cc1)n1cc(Cn2cc(/C=C/C(=O)c3ccc(Br)cc3)c3ccccc32)nn1 (centres undefined)

SMILES: CCOc1cccc(-n2cc(C(C)N3C(=O)C(=O)c4ccccc43)nn2)c1 (centres undefined)
diameter of the inhibition zone (DIZ) (Staphylococcus aureus [17]): 10 mm

MIC (Pseudomonas aeruginosa [20]): 1.25 µg/mL (≈ 3.95 µM)
MIC (Bacillus subtilis [21]): 1.25 µg/mL (≈ 3.95 µM)
SMILES: C=CCCC1CC(=O)N1Cc1cn(-c2ccc(Cl)cc2)nn1 (centres undefined)
